Measurements reported in ChEMBL document CHEMBL4311981, “Synthesis, anticancer activity, and molecular modeling of 1,4-naphthoquinones that inhibit MKK7 and Cdc25” (Eur J Med Chem, 2019).
Activity calls are given as the source filed them. The calls are words filed in the database; no cut-off is given here.

Columns and labels:
[1] = target: T1, Dual specificity mitogen-activated protein kinase kinase 7 (Homo sapiens) (UniProt O14733); test: Binding affinity to MKK7 (unknown origin) expressed in HEK293 cells assessed as dissociation constant at <30 uM by kinomescan method; format: cell-based
T1 sequence (whole entry): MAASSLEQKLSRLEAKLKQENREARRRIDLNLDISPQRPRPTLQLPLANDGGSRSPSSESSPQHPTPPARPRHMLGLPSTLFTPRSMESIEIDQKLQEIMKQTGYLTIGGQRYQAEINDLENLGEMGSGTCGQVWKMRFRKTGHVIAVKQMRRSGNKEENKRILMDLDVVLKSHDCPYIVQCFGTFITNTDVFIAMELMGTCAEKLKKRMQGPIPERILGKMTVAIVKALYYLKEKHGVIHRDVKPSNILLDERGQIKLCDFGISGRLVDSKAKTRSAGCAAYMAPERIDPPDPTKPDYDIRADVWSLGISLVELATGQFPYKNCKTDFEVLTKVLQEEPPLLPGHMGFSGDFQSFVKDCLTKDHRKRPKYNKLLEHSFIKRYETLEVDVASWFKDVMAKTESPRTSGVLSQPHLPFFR

[2] = target: T2, Neutrophil elastase (Homo sapiens) (UniProt P08246); test: Inhibition of recombinant HNE (unknown origin) at <50 uM using N-methylsuccinyl-Ala-Ala-Pro-Val-7-amino-4-methylcoumarin, as a substrate measured every 30 sec for 10 mins by fluorometric assay
T2 sequence (whole entry): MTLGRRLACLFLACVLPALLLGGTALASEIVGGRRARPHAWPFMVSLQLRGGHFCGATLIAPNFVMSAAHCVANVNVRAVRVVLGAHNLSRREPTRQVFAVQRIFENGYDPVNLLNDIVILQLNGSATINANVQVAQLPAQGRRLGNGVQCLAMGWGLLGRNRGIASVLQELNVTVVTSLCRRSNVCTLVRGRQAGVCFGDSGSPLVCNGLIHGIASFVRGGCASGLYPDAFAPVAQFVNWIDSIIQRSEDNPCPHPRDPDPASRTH

[3] = target: T3, M-phase inducer phosphatase 1 (Homo sapiens, UniProt P30304)
T3 sequence (P30304 whole entry): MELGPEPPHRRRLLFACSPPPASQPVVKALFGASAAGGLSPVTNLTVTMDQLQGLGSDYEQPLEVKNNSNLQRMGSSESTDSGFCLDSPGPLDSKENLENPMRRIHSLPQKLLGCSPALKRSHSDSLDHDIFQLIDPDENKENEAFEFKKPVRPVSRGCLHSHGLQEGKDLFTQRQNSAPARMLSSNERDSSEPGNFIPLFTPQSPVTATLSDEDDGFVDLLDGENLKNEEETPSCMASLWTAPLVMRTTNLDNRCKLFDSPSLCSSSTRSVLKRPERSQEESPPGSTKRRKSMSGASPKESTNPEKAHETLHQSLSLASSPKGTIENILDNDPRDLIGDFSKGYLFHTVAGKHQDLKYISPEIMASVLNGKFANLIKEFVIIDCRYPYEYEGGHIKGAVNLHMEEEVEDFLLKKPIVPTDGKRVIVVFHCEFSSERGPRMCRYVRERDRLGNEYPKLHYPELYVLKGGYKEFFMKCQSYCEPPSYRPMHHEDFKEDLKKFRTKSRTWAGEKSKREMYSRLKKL
Description: Inhibition of recombinant Cdc25A (unknown origin) using OMFP as substrate measured every 30 sec for 10 mins by fluorometric assay

[4] = target: T4, Dual specificity mitogen-activated protein kinase kinase 7 (Homo sapiens, UniProt O14733); test: biochemical
T4 sequence (O14733 whole entry): T1 sequence (whole entry)
Description: Binding affinity to MKK7 (unknown origin) expressed in HEK293 cells assessed as dissociation constant by kinomescan method

THP-1 = test: Cytotoxicity against human THP1 cells assessed as reduction in cell viability incubated for 24 hrs by CellTiter-Glo luminescent cell viability assay; format: functional, cell-based; conditions: THP-1, 24 h
MONO-MAC-6 = test: Cytotoxicity against human MONO-MAC-6 cells assessed as reduction in cell viability incubated for 24 hrs by CellTiter-Glo luminescent cell viability assay; format: functional, cell-based; conditions: MONO-MAC-6, 24 h
HL-60 = test: Cytotoxicity against human HL60 cells assessed as reduction in cell viability incubated for 24 hrs by CellTiter-Glo luminescent cell viability assay; format: functional, cell-based; conditions: for IC50: HL-60, 24 h
SW982 = test: Cytotoxicity against human SW982 cells assessed as reduction in cell viability incubated for 24 hrs by CellTiter-Glo luminescent cell viability assay; format: functional, cell-based; conditions: SW982, 24 h
U-937 = test: Cytotoxicity against human U937 cells assessed as reduction in cell viability incubated for 24 hrs by CellTiter-Glo luminescent cell viability assay; format: functional, cell-based; conditions: U-937, 24 h
MCF7 = test: Cytotoxicity against human MCF7 cells assessed as reduction in cell viability incubated for 24 hrs by CellTiter-Glo luminescent cell viability assay; format: functional, cell-based; conditions: MCF7, 24 h
LS174T = test: Cytotoxicity against human LS174T cells assessed as reduction in cell viability incubated for 24 hrs by CellTiter-Glo luminescent cell viability assay; format: functional, cell-based
A549 = test: Cytotoxicity against human A549 cells assessed as reduction in cell viability incubated for 24 hrs by CellTiter-Glo luminescent cell viability assay; format: functional, cell-based; conditions: for IC50: A549, 24 h
PBMC = test: Cytotoxicity against human PBMC cells assessed as reduction in cell viability incubated for 24 hrs by CellTiter-Glo luminescent cell viability assay; format: cell-based
[5] = target: T5, M-phase inducer phosphatase 2 (Homo sapiens, UniProt P30305)
T5 sequence (P30305 whole entry): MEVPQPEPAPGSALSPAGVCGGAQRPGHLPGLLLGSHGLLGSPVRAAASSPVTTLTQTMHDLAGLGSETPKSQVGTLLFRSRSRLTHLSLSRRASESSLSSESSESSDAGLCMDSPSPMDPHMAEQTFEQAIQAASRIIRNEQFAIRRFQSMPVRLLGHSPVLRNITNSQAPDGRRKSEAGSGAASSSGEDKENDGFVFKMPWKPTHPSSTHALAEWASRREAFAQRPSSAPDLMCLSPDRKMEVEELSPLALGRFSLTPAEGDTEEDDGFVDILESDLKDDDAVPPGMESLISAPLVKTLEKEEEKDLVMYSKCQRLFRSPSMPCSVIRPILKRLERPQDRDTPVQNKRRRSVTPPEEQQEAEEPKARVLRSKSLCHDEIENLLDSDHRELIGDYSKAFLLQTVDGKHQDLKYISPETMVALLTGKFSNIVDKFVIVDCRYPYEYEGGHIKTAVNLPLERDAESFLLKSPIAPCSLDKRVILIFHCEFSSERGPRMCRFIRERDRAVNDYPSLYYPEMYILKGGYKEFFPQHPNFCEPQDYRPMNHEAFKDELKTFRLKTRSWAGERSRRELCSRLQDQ
Description: Inhibition of recombinant Cdc25B (unknown origin) using OMFP as substrate measured every 30 sec for 10 mins by fluorometric assay

Jurkat = test: cells; conditions: Homo sapiens, 24 h
Description: Cytotoxicity against human Jurkat cells assessed as reduction in cell viability incubated for 24 hrs by CellTiter-Glo luminescent cell viability assay

Cn1c(SCCC(=O)O)nc2ccccc2c1=O
Activity [1]: inactive

CC1=C(SCCC(=O)O)C(=O)c2ccccc2C1=O
inhibition [2]: inactive
IC50 [3]: 5.1 µM
Kd [4]: 15 µM

O=C(O)c1ccc(NC2=C(Cl)C(=O)c3ccccc3C2=O)cc1
IC50 (THP-1): 5.6 µM
IC50 (MONO-MAC-6): 6 µM
IC50 (HL-60): 8.9 µM
IC50 (SW982): 4.6 µM
IC50 (U-937): 3.9 µM
IC50 (MCF7): 14.5 µM
IC50 (LS174T): 9.9 µM
IC50 (A549): 17.6 µM
IC50 (PBMC; read-out: IC50): 13.1 µM
inhibition [1]: inactive
inhibition [2]: inactive
IC50 [3]: 2.4 µM
IC50 [5]: 4.9 µM
IC50 (Jurkat): 5.5 µM

O=C(O)CCCc1nc2ccccc2c(=O)[nH]1
Activity [1]: inactive

O=C(O)CSC1=CC(=O)c2ccccc2C1=O
IC50 (MONO-MAC-6): 23.2 µM
IC50 (HL-60): 20.4 µM
IC50 (SW982): 11.1 µM
IC50 (U-937): 15.9 µM
Activity (A549): inactive
IC50 (A549): 22.9 µM
inhibition [2]: inactive
IC50 [3]: 0.05 µM
IC50 [5]: 1 µM
IC50 (Jurkat): 0.94 µM
Kd [4]: 1.4 µM

Nn1c(CCC(=O)O)nc2ccccc2c1=O
Activity [1]: inactive

O=C(O)CSc1nc(O)c2ccccc2n1
Activity [1]: inactive

CCN(CC)CCNC(=O)c1c(C)[nH]c(/C=C2\C(=O)Nc3ccc(F)cc32)c1C [SUNITINIB]
IC50 (SW982): 41.2 µM
IC50 (U-937): 13.7 µM
IC50 (PBMC): 46.3 µM

CC(C)=CC[C@@H](O)C1=CC(=O)c2c(O)ccc(O)c2C1=O [SHIKONIN]
IC50 (THP-1): 0.82 µM
IC50 (MONO-MAC-6): 2.6 µM
Activity (HL-60): Dose-dependent effect
IC50 (SW982): 2.8 µM
IC50 (U-937): 1.2 µM
IC50 (MCF7): 2.7 µM
IC50 (LS174T): 8.9 µM
IC50 (A549): 7.3 µM
IC50 (PBMC; read-out: IC50): 5 µM
Activity [1]: inactive
inhibition [2]: inactive
IC50 [3]: 0.22 µM
IC50 (Jurkat): 0.97 µM

O=C1C(O)=C(CN(CCCl)CCCl)C(=O)c2ccccc21
IC50 [3]: 15.4 µM

O=C(O)CCNC1=C(Cl)C(=O)c2ccccc2C1=O
inhibition [1]: inactive
inhibition [2]: inactive
IC50 [3]: 26.1 µM
IC50 [5]: 28.8 µM

CC1=C(SC(C)C)C(=O)c2ccccc2C1=O
IC50 (THP-1): 3.6 µM
IC50 (MONO-MAC-6): 2 µM
IC50 (HL-60): 4.3 µM
IC50 (SW982): 12.8 µM
IC50 (U-937): 8.9 µM
IC50 (MCF7): 16.8 µM
IC50 (LS174T): 20.8 µM
IC50 (A549): 24 µM
inhibition [2]: inactive
IC50 [3]: 6.3 µM
IC50 [5]: 9.1 µM
IC50 (Jurkat): 4.7 µM
Kd [4]: 13 µM

O=C(O)CCCCCNC1=C(Cl)C(=O)c2ccccc2C1=O
inhibition [1]: inactive
inhibition [2]: inactive
IC50 [3]: 36.4 µM
IC50 [5]: 23.7 µM
